Data as given in PubChem BioAssay (NCI).
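Protocol summary: plate cells (96-well), add compound at 5 concentrations, incubate 48 h, interpolate endpoints linearly. Definition used: TGI = concentration required for complete inhibition of growth.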

Experiments:
Experiment in all cases: inhibition of tumour cell growth, NCI panel, 48 h
HOP-92 NSCLC = system: HOP-92 NSCLC
OVCAR-4 ovarian = system: OVCAR-4 ovarian
SR leukemia = system: SR leukemia
HCT-116 colon = system: HCT-116 colon
SW-620 colon = system: SW-620 colon
TK-10 renal = system: TK-10 renal
NCI-H226 lung = system: NCI-H226 lung
A498 renal = system: A498 renal
LOX IMVI melanoma = system: LOX IMVI melanoma
IGROV1 ovarian = system: IGROV1 ovarian
SK-MEL-28 melanoma = system: SK-MEL-28 melanoma
786-0 renal = system: 786-0 renal
OVCAR-3 ovarian = system: OVCAR-3 ovarian
EKVX NSCLC = system: EKVX NSCLC
K-562 leukemia = system: K-562 leukemia
DMS 114 small cell lung = system: DMS 114 small cell lung
HL-60(TB) leukemia = system: HL-60(TB) leukemia
UO-31 renal = system: UO-31 renal
UACC-257 melanoma = system: UACC-257 melanoma
CAKI-1 renal = system: CAKI-1 renal
KM12 colon = system: KM12 colon
RPMI-8226 leukemia = system: RPMI-8226 leukemia
M14 melanoma = system: M14 melanoma
SNB-78 CNS = system: SNB-78 CNS
DLD-1 colon = system: DLD-1 colon
RXF 393 renal = system: RXF 393 renal
NCI-H460 lung = system: NCI-H460 lung
SNB-19 CNS = system: SNB-19 CNS
SK-MEL-2 melanoma = system: SK-MEL-2 melanoma
OVCAR-5 ovarian = system: OVCAR-5 ovarian
A549 NSCLC = system: A549 NSCLC
NCI-H23 lung = system: NCI-H23 lung
SN12C renal = system: SN12C renal
MOLT-4 leukemia = system: MOLT-4 leukemia
SK-OV-3 ovarian = system: SK-OV-3 ovarian
MALME-3M melanoma = system: MALME-3M melanoma
U251 CNS = system: U251 CNS
LXFL 529 NSCLC = system: LXFL 529 NSCLC
NCI-H522 lung = system: NCI-H522 lung
SNB-75 CNS = system: SNB-75 CNS
M19-MEL melanoma = system: M19-MEL melanoma
SK-MEL-5 melanoma = system: SK-MEL-5 melanoma
SF-539 CNS = system: SF-539 CNS
COLO 205 colon = system: COLO 205 colon
SF-295 CNS = system: SF-295 CNS
HOP-62 NSCLC = system: HOP-62 NSCLC
CCRF-CEM leukemia = system: CCRF-CEM leukemia
UACC-62 melanoma = system: UACC-62 melanoma
OVCAR-8 ovarian = system: OVCAR-8 ovarian
ACHN renal = system: ACHN renal
HCC-2998 colon = system: HCC-2998 colon
DMS 273 small cell lung = system: DMS 273 small cell lung
SF-268 CNS = system: SF-268 CNS
HT29 colon = system: HT29 colon
MDA-MB-435 = system: MDA-MB-435
MDA-MB-231 breast = system: MDA-MB-231 breast
MDA-N = system: MDA-N
PC-3 prostate = system: PC-3 prostate
HCT-15 colon = system: HCT-15 colon
BT-549 breast = system: BT-549 breast
MCF7 breast = system: MCF7 breast
T-47D breast = system: T-47D breast
DU-145 prostate = system: DU-145 prostate
NCI/ADR-RES ovarian = system: NCI/ADR-RES ovarian
HS 578T breast = system: HS 578T breast

Structure (SMILES): CC(=O)NC1=C(C)C(=O)c2c(nc3n2CCC3OC(=O)c2ccccc2)C1=O (stereo not drawn)
- TGI (HOP-92 NSCLC): 4.7 µM
- TGI (OVCAR-4 ovarian): 3.2 µM
- TGI (SR leukemia): 6 µM
- TGI (HCT-116 colon): 4.1 µM
- TGI (SW-620 colon): 4.55 µM
- TGI (TK-10 renal): 24.1 µM
- TGI (NCI-H226 lung): 4.69 µM
- TGI (A498 renal): 25.3 µM
- TGI (LOX IMVI melanoma): 2.96 µM
- TGI (IGROV1 ovarian): 3.98 µM
- TGI (SK-MEL-28 melanoma): 3.67 µM
- TGI (786-0 renal): 14.9 µM
- TGI (OVCAR-3 ovarian): 0.528 µM
- TGI (EKVX NSCLC): 3.01 µM
- TGI (K-562 leukemia): 6.17 µM
- TGI (DMS 114 small cell lung): 2.54 µM
- TGI (HL-60(TB) leukemia): 5.13 µM
- TGI (UO-31 renal): 6.3 µM
- TGI (UACC-257 melanoma): 2.93 µM
- TGI (CAKI-1 renal): 4.78 µM
- TGI (KM12 colon): 10.3 µM
- TGI (RPMI-8226 leukemia): 5.62 µM
- TGI (M14 melanoma): 3.47 µM
- TGI (SNB-78 CNS): 5.46 µM
- TGI (DLD-1 colon): 4.46 µM
- TGI (RXF 393 renal): 11.6 µM
- TGI (NCI-H460 lung): 5.13 µM
- TGI (SNB-19 CNS): 7.65 µM
- TGI (SK-MEL-2 melanoma): 3.19 µM
- TGI (OVCAR-5 ovarian): 3.54 µM
- TGI (A549 NSCLC): 3.1 µM
- TGI (NCI-H23 lung): 3.55 µM
- TGI (SN12C renal): 3.41 µM
- TGI (MOLT-4 leukemia): 5.57 µM
- TGI (SK-OV-3 ovarian): 8.51 µM
- TGI (MALME-3M melanoma): 3.38 µM
- TGI (U251 CNS): 3.86 µM
- TGI (LXFL 529 NSCLC): 2.9 µM
- TGI (NCI-H522 lung): 4.06 µM
- TGI (SNB-75 CNS): 6.36 µM
- TGI (M19-MEL melanoma): 3.57 µM
- TGI (SK-MEL-5 melanoma): 3.12 µM
- TGI (SF-539 CNS): 3.4 µM
- TGI (COLO 205 colon): 12.5 µM
- TGI (SF-295 CNS): 3.06 µM
- TGI (HOP-62 NSCLC): 5.56 µM
- TGI (CCRF-CEM leukemia): 4.44 µM
- TGI (UACC-62 melanoma): 3.44 µM
- TGI (OVCAR-8 ovarian): 2.95 µM
- TGI (ACHN renal): 8.72 µM
- TGI (HCC-2998 colon): 12.1 µM
- TGI (DMS 273 small cell lung): 5.28 µM
- TGI (SF-268 CNS): 4.52 µM
- TGI (HT29 colon): 3.48 µM

Structure (SMILES): CC(=NCC(=O)O)c1ccccc1
- TGI (HOP-92 NSCLC): > 100 µM
- TGI (OVCAR-4 ovarian): > 100 µM
- TGI (SR leukemia): > 100 µM
- TGI (MDA-MB-435): > 100 µM
- TGI (MDA-MB-231 breast): > 100 µM
- TGI (MDA-N): > 100 µM
- TGI (HCT-116 colon): > 100 µM
- TGI (SW-620 colon): > 100 µM
- TGI (TK-10 renal): > 100 µM
- TGI (NCI-H226 lung): > 100 µM
- TGI (A498 renal): > 100 µM
- TGI (LOX IMVI melanoma): > 100 µM
- TGI (IGROV1 ovarian): > 100 µM
- TGI (SK-MEL-28 melanoma): > 100 µM
- TGI (786-0 renal): > 100 µM
- TGI (OVCAR-3 ovarian): > 100 µM
- TGI (EKVX NSCLC): > 100 µM
- TGI (PC-3 prostate): > 100 µM
- TGI (K-562 leukemia): > 100 µM
- TGI (HCT-15 colon): > 100 µM
- TGI (HL-60(TB) leukemia): > 100 µM
- TGI (UO-31 renal): > 100 µM
- TGI (UACC-257 melanoma): > 100 µM
- TGI (CAKI-1 renal): > 100 µM
- TGI (BT-549 breast): > 100 µM
- TGI (MCF7 breast): > 100 µM
- TGI (KM12 colon): > 100 µM
- TGI (RPMI-8226 leukemia): > 100 µM
- TGI (M14 melanoma): > 100 µM
- TGI (T-47D breast): > 100 µM
- TGI (RXF 393 renal): > 100 µM
- TGI (NCI-H460 lung): > 100 µM
- TGI (SNB-19 CNS): > 100 µM
- TGI (SK-MEL-2 melanoma): > 100 µM
- TGI (OVCAR-5 ovarian): > 100 µM
- TGI (A549 NSCLC): > 100 µM
- TGI (NCI-H23 lung): > 100 µM
- TGI (SN12C renal): > 100 µM
- TGI (MOLT-4 leukemia): > 100 µM
- TGI (SK-OV-3 ovarian): > 100 µM
- TGI (MALME-3M melanoma): > 100 µM
- TGI (U251 CNS): > 100 µM
- TGI (NCI-H522 lung): > 100 µM
- TGI (SNB-75 CNS): > 100 µM
- TGI (DU-145 prostate): > 100 µM
- TGI (NCI/ADR-RES ovarian): > 100 µM
- TGI (SK-MEL-5 melanoma): > 100 µM
- TGI (HS 578T breast): > 100 µM
- TGI (SF-539 CNS): > 100 µM
- TGI (COLO 205 colon): > 100 µM
- TGI (SF-295 CNS): > 100 µM
- TGI (HOP-62 NSCLC): > 100 µM
- TGI (CCRF-CEM leukemia): > 100 µM
- TGI (UACC-62 melanoma): > 100 µM
- TGI (OVCAR-8 ovarian): > 100 µM
- TGI (ACHN renal): > 100 µM
- TGI (HCC-2998 colon): > 100 µM
- TGI (SF-268 CNS): > 100 µM
- TGI (HT29 colon): > 100 µM
